The series relates to Trypsin. Description: Proteolytic degradation. The series is classed as in vitro ADME. Particulars: peptide 100 µM, trypsin 0.125 mg/ml (~5 µM), ammonium bicarbonate buffer 50 mM pH 8.5, 16 h, 37 °C, MALDI-ToF MS. The text has this: Samples were resuspended in MQ-water containing 0.1% TFA, desalted using ZipTip-C18 columns (Millipore) and analyzed using MALDI-ToF with α-cyano-4-hydroxycinnamic acid as matrix.

Residues, ends and D or L forms follow the SMILES beside them.

On to `CC(C)C[C@H](NC(=O)[C@H](Cc1ccc(O)cc1)NC(=O)[C@H](Cc1ccc(O)cc1)NC(=O)CNC(=O)[C@H](Cc1c[nH]c2ccccc12)NC(=O)[C@H](CO)NC(=O)[C@H](CO)NC(=O)[C@H](Cc1c[nH]c2ccccc12)NC(=O)[C@H](CC(C)C)NC(=O)[C@H](CCCCN)NC(=O)[C@@H](NC(=O)[C@@H](NC(=O)[C@H](CC(C)C)NC(=O)[C@@H](N)CC(=O)O)[C@@H](C)O)[C@@H](C)O)C(=O)NCC(=O)N[C@@H](CCCCN)C(=O)N[C@@H](CCCCN)C(=O)N[C@@H](C)C(=O)N[C@@H](CCCNC(=N)N)C(=O)N[C@@H](Cc1c[nH]c2ccccc12)C(=O)N[C@@H](CC(N)=O)C(=O)N[C@@H](CC(C)C)C(=O)N[C@@H](CCCCN)C(=O)N[C@@H](Cc1c[nH]cn1)C(=O)N1CCC[C@H]1C(=O)N[C@@H](Cc1ccc(O)cc1)C(=O)N[C@H](C(=O)N[C@@H](CCC(N)=O)C(=O)N[C@@H](Cc1ccccc1)C(=O)O)C(C)C` [L-PLNC8 α] (H-DLTTKLWSSWGYYLGKKARWNLKHPYVQF-OH), for which the degradation by trypsin result is “efficiently degraded by trypsin”. The result for `CC[C@H](C)[C@H](NC(=O)CNC(=O)[C@H](CC(C)C)NC(=O)[C@@H](NC(=O)[C@H](Cc1ccc(O)cc1)NC(=O)[C@@H](NC(=O)[C@H](CO)NC(=O)[C@@H](NC(=O)[C@@H]1CCCN1C(=O)[C@@H](NC(=O)[C@@H](N)CO)C(C)C)[C@@H](C)O)C(C)C)[C@@H](C)O)C(=O)N[C@@H](CCCCN)C(=O)N[C@H](C(=O)N[C@@H](CC(C)C)C(=O)N[C@@H](Cc1c[nH]c2ccccc12)C(=O)N[C@@H](CO)C(=O)N[C@@H](C)C(=O)N[C@@H](Cc1ccc(O)cc1)C(=O)N[C@@H](CCCCN)C(=O)N[C@@H](Cc1c[nH]cn1)C(=O)N[C@@H](CCCNC(=N)N)C(=O)N[C@@H](CCCCN)C(=O)N[C@H](C(=O)N[C@H](C(=O)N[C@@H](CCC(=O)O)C(=O)N[C@@H](CCCCN)C(=O)N[C@@H](CO)C(=O)N[C@@H](Cc1ccccc1)C(=O)N[C@@H](CC(N)=O)C(=O)N[C@@H](CCCCN)C(=O)NCC(=O)N[C@@H](Cc1ccccc1)C(=O)N[C@@H](Cc1ccc(O)cc1)C(=O)N[C@@H](Cc1c[nH]cn1)C(=O)O)[C@@H](C)CC)[C@@H](C)O)[C@@H](C)CC` [L-PLNC8 β] (H-SVPTSVYTLGIKILWSAYKHRKTIEKSFNKGFYH-OH) reads “efficiently degraded by trypsin”.
